The target in data set [1] is T1, mushroom tyrosinase (Agaricus bisporus, UniProt C7FF04).
T1 construct: purchased Sigma Aldrich T3824-250 KU
As to the kind of experiment: Mushroom tyrosinase inhibition assay (L-DOPA oxidation to dopachrome). The class given is biochemical. As to the method: Both were dissolved in 20 mM phosphate buffer solution, pH 6.8. First, 20 µL from a freshly prepared stock solution of mushroom tyrosinase (270 U/mL) and 75 µL of test compounds stock solutions (20 mM PBS, pH 6.8) were mixed and pre-incubated at 37 °C for 15 min. Then, 30 µL of 6 mM L-DOPA was added to the reaction mixture, followed by an incubation of 20 min at 37 °C. During this reaction, L-DOPA is converted to dopachrome (a precursor of melanin), visually detected by the change of color from colorless to orange/brown, resulting in an absorbance increase, recorded spectrophotometrically at 475 nm on a Flex Station 3 Multi-Mode Microplate Reader (Molecular Devices). The inhibition rate was calculated as follows:(1) % Tyrosinase inhibition=(1−A−B/C−D)×100 where A and B represent the final and initial optical densities of the reaction in the presence of the tested compounds, while C and D represent the final and initial optical densities of the reaction in their absence, respectively. […] Experiments were carried out in triplicate and repeated at least 3 times.

In data set [2] the target is T1, mushroom tyrosinase. Put plainly: Kinetic analysis of tyrosinase inhibition. The class given is biochemical. From the text: GraphPad Prism 8.2.1 was used to fit the experimental data to these four models, all of them compared with each other. Akaike’s Information Criteria (AICc) approach was used to compare the fit of competitive, uncompetitive, and noncompetitive models, while extra sum-of-squares F test was used to compare the mixed model with the remaining three models, as they are considered to be special cases of the mixed model general equation.
Additionally, the mixed model fitting includes an extra parameter, the alpha (α) value, which represents a useful quantitative indicator of the mechanism of inhibition.
Initial velocity of the enzymatic reaction, V0, was determined from the slope of the curve at the initial phase of the reaction, in the presence of increasing concentrations of each compound (25–100 μM) and L-dopa (0.10–1.0 mM) and then plotted as a function of the corresponding substrate concentration, [S]. GraphPad Prism 8.2.1 program was used to fit the obtained data into the Michaelis–Menten model and to determine the kinetic parameters Vmax and KM (maximal reaction velocity and Michaelis–Menten constant, respectively).

The conditions of data set [3]: pH 7.4, cited from earlier work; for fraction in quinoidal base form: 7-A^− and 8-A, ref [20],[22].
The mark [4] stands for this setting: 50 µM compound, substrate L-DOPA, pH 6.8, 37 °C, mean ± SEM, read-out: % mTYR Inhibition at 50 µM.

Read-outs that look alike come from different tables or passages of the source.

T1 sequence (C7FF04 1-392): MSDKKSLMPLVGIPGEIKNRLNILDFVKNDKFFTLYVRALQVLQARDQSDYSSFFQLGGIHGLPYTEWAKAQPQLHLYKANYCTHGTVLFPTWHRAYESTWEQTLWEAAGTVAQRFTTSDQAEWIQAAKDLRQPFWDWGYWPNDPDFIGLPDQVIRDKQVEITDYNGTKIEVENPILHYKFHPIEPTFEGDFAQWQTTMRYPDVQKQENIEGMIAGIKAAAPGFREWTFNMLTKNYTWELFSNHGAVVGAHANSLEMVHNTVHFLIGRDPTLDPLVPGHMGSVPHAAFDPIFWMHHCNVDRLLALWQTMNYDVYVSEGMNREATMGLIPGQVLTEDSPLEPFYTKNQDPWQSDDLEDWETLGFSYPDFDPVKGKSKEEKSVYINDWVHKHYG

Compound `Oc1cc(O)c2ccc(-c3ccc(O)c(O)c3)[o+]c2c1` [Compound 1, luteolinidin] showed an IC50 on mushroom tyrosinase [1] of 39.2 ± 2.71 µM. Besides, the inhibition at 50 µM at mushroom tyrosinase [1] (pH 6.8, read-out: % mTYR Inhibition at 50 µM) amounted to 58.5 ± 2.08%. This compound also returned an inhibitory constant (Ki) at mushroom tyrosinase [2] of 15.1 ± 1.18 µM. In addition, the Vmax on mushroom tyrosinase [2] (L-DOPA, inhibitor 25 μM) worked out at 45.8 µM/min; on mushroom tyrosinase [2] (L-DOPA, inhibitor 50 μM) it was 45.8 µM/min; on mushroom tyrosinase [2] (L-DOPA, inhibitor 75 μM) it was 45.8 µM/min; at mushroom tyrosinase [2] (L-DOPA, inhibitor 100 μM), 45.8 µM/min. The same compound came in with a α at mushroom tyrosinase [2] (alpha value from fitting of mixed model equation) of 21.00. For the same compound, on mushroom tyrosinase [2] (diphenolase activity, L-DOPA, model comparison in GraphPad Prism), the “Inhibition Type” value is “Competitive”.
In the case of `O=C(O)c1cc2c(O[C@@H]3O[C@H](CO)[C@@H](O)[C@H](O)[C@H]3O)c(-c3ccc(O)c(O)c3)oc3cc(=O)cc(o1)c32` [Compound 5, carboxypyranocyanidin-3-O-glucoside], at mushroom tyrosinase [1] (setting [4]), the inhibition at 50 µM came to 22.1 ± 0.962%. Besides, on mushroom tyrosinase [1] (200 μM compound, L-DOPA oxidation (Figure 3), read-out: inhibition rate at 200 μM), the inhibition at 200 µM was approximately 40%. The “fraction under the form A^2−” value in data set [3] (ref [20],[21]) was approximately 100%.
As to `Cc1cc2c(O[C@@H]3O[C@H](CO)[C@@H](O)[C@H](O)[C@H]3O)c(-c3ccc(O)c(O)c3)oc3cc(=O)cc(o1)c32` [Compound 7, methylpyranocyanidin-3-O-glucoside], the inhibition at 50 µM at mushroom tyrosinase [1] (setting [4]) stood at 16.2 ± 1.14%. Further, the “fraction in quinoidal base form” value in data set [3] was 80%.
As to `COc1cc(-c2oc3cc(=O)cc4oc(C)cc(c2O[C@@H]2O[C@H](CO)[C@@H](O)[C@H](O)[C@H]2O)c43)cc(OC)c1O` [Compound 8, methylpyranomalvidin-3-O-glucoside], the inhibition at 50 µM at mushroom tyrosinase [1] (setting [4]) is 9.74 ± 3.36%. The “fraction in quinoidal base form” value in data set [3] was 80%.

A word on the IC50: it is the midpoint of a concentration-inhibition curve. A lower IC50 goes with inhibition by little substance. The term inhibition denotes the share of the control response that was lost under treatment. As a reminder, the Ki is the equilibrium dissociation constant of an inhibitor or competing ligand from its target. Low readings indicate tighter binding, high ones weaker binding. The term Vmax denotes the rate approached at saturating substrate.

Values taken from paper PMC8230073, “The Role of Anthocyanins, Deoxyanthocyanins and Pyranoanthocyanins on the Modulation of Tyrosinase Activity: An In Vitro and In Silico Approach” (International Journal of Molecular Sciences, 2021).
